The results in this text go back to patent publication US8173668B1 (Alcon Research, Ltd., priority 2007, dated 2012).

Series [1] has as its target human cloned B2-receptors (Homo sapiens, UniProt P30411). As to the kind of experiment: HTRF-based assay of endogenous IP1 production in CHO cells. The class given is cell-based. The conditions noted are these: CHO cells expressing human cloned B2-receptors, read-out: EC50, production of endogenous IP1 from PI turnover. In general terms: Time-resolved FRET reads energy transfer from a long-lived donor to a nearby acceptor.
Method: The cells are suspended in IP1 stimulation buffer containing Hepes 10 mM, CaCl2 1 mM, MgCl2 0.5 mM, KCl 4.2 mM, NaCl 146 mM, Glucose 5.5 mM, LiCl 50 mM pH 7.4, then distributed in microplates at a density of 40,000 cells/well (B2 receptor assays) or 30,000 cells/well (B1 receptor assays). Test compounds are added to the cells at various concentrations and incubated for 20 min at 37° C. […] Following the 20 min incubation at 37° C., the cells are lysed and the fluorescence acceptor (D2-labeled IP1) and fluorescence donor (anti-IP1 antibody labeled with europium cryptate) are added. After 60 min at room temperature, the fluorescence transfer is measured at λex=337 nm and λem=620 and 665 nm using a microplate reader.

Series [2] in a line: Ocular pharmacokinetic study in rabbit eyes, single topical ocular dose. Format: in vivo. The conditions noted are these: single 300 μg topical ocular dose; for concentration at 0.5 hr: 0.5 hr post-dosing; for concentration at 1 hr: 1.0 hr post-dosing; for concentration at 3 hr: 3 hr post-dosing; for concentration at 6 hr: 6 hr post-dosing. The method, then: In order to better understand the time-course of action of FR-190997, a pharmacokinetic study was performed in rabbit eyes using a single 300 μg topical ocular dose of FR-190997. […] Due to the activation of multiple signaling pathways by BK (see above), and presumably FR-190997, and the convergence and amplification of the down-stream biochemical reactions in the target cells/tissues, it is quite possible that activation of only a few BK receptors by FR-190997 may result in quite profound IOP-lowering.

For the next series, the system named is ocular normotensive mice. As to the kind of experiment: Acute IOP response in mouse eyes. The class given is in vivo. The conditions noted are these: 0.1% topical, IOP at 6 and 24 hours; FIG. 7. The method, then: IOP is determined with an applanation pneumatonometer after light corneal anesthesia with 0.1% proparacaine. After baseline IOP measurements were taken, one eye of each of 8 mice was topically dosed with 0.1% FR-190997 in the formulation described in Example 10 or the vehicle of Example 10. The contralateral eye was dosed with vehicle as a control. Subsequent IOP measurements were taken at 6 and 24 hours.

The test system of series [3] is anterior eye segments of pig eyes. As to the kind of experiment: Outflow facility in perfused anterior eye segments. The conditions noted are these: 1 μM, perfused porcine anterior eye segments, n=5; FIG. 8. The method, then:
Anterior eye segments obtained from postmortem porcine eyes were used to study the effects of non-peptide agonists on fluid outflow through the trabecular meshwork and Schlemms' canal (Erickson-Lamey et al., Curr. Eye Res. 7: 799-807, 1988; Vaajanen et al. J. Ocular Pharmacol. Ther. 23: 124-131, 2007). The postmortem eyes were placed in DMEM containing 50 U/ml penicillin, 50 μg/mL streptomycin, and 5 μg/mL amphotericin B prior to dissection under sterile conditions. Eyes were bisected at the to equator and the anterior chamber transferred to a petri dish. The lens was removed and the remaining choroid, iris, and ciliary body gently teased away. […] Perfusion pressure for standard perfusion was maintained at a constant level of 10 mmHg, and rate of fluid outflow monitored continuously (i.e. by means of a Model ACCU 124 analytical balance; Fisher Scientific, Pittsburgh, Pa.) throughout the experiment. The rate of fluid flow was recorded by a computer utilizing Collect XL software (Lab Tronics, Inc; Guelph, Ontario, Canada). Outflow facility was calculated as the ratio of flow rate to perfusion pressure (μL/min/mmHg).
Preparations were allowed to stabilize overnight (14-16 hr), and baseline facilities were then recorded for 40-60 min. […]

The next series has as its system cats. As to the kind of experiment: IOP-lowering activity in cats. The class given is in vivo. The text has this: (§1) Some obvious drawbacks and reasons for the lack of consistent observations noted above are probably related to species differences in the effects of BK on IOP changes and on the fact that BK is a labile peptide that can easily and rapidly be inactivated by kininases and other proteases when it comes into contact with body fluids (Hall, Pharmacol. Ther., 56, 131-190, 1992). Additionally, topical ocular administration of peptides such as BK are confounded by the potential lack of or little bioavailability through the cornea to reach the anterior segment of the eye. […] This is probably related to the attainment of a relevant concentration in the aqueous humor and ciliary body when the compound was administered topical ocularly.

Series [4] has as its system rabbits (New Zealand White and Dutch-Belted). As to the kind of experiment: IOP-lowering activity in rabbits. Format: in vivo.
Excerpt: as §1
IOP is determined with an applanation pneumatonometer after light corneal anesthesia with 0.1% proparacaine. After baseline IOP measurements are taken, one eye of each of 7-10 (or both eyes of 5) rabbits per compound dose is topically dosed with compound. Either the contralateral eye is dosed with vehicle or a separate group of rabbits is used for vehicle control. Subsequent IOP measurements are taken at 0.5, 1, 2, 3, and 4 hours. In cases where the compound has poor ocular bioavailability, the compound may need to be administered intracamerally or intravitreally in order to observe the IOP-lowering efficacy.

Where [5] appears, read: aqueous humor, read-out: Aqueous Humor Concentration.
Where [6] appears, read: ciliary body, read-out: Ciliary Body Concentration.

Where two headings read alike, the source gives them in different places.

human cloned B2-receptors, sequence (P30411 whole entry): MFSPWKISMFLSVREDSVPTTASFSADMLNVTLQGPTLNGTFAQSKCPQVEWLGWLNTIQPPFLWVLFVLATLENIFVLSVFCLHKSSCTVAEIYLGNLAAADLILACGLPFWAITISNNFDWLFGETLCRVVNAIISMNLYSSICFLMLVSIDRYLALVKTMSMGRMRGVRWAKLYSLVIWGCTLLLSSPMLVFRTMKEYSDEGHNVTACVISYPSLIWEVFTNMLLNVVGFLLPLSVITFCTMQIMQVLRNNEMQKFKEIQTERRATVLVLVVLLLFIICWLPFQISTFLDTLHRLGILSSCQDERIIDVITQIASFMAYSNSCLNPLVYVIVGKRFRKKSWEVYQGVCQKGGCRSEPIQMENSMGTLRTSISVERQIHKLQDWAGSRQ

As usually defined, the EC50 is the midpoint of the concentration-response curve. As for `CNC(=O)c1ccc(/C=C/C(=O)NCC(=O)N(C)c2ccc(Cl)c(COc3cccc4c(OCc5ccccn5)cc(C)nc34)c2Cl)cc1` [FR-190997], the EC50 in series [1] was 21 nM. In series [2] (setting [5]), the concentration at 0.5 hr amounted to 0.9 ± 0.2 nM, the concentration at 1 hr is 16 ± 4.7 nM, the concentration at 3 hr turned out to be 139 ± 114 nM and the concentration at 6 hr worked out at 16.6 ± 4.6 nM. In series [2] (aqueous humor, 1.5 hr post-dosing), this molecule registered a concentration at 1.5 hr of 3.1 ± 1.1 nM. In addition, in series [2] (setting [6]), the concentration at 0.5 hr turned out to be 2.75 ± 1.7 nM, the concentration at 1 hr came out at 5.52 ± 1.68 nM, the concentration at 3 hr was found to be 26.4 ± 7.9 nM and the concentration at 6 hr came to 37 ± 10.6 nM. For the same molecule, in series [2], the “peak aqueous humor level” value is recorded as 139 nM and the “time of peak aqueous humor level post-dosing” value came to 3 h. The “effect on IOP in ocular normotensive mice” value in the series with ocular normotensive mice is “lower IOP”. The outflow facility result in series [3] is listed as “increased the outflow facility flow”. Also, the “ability to lower IOP” value with cats is listed as “unable to lower IOP”. Further, the “ability to lower IOP” value in series [4] is “unable to lower IOP”.
